Tests used:
[1] = target: human RIPK2 kinase (Homo sapiens (Human), UniProt O43353); experiment: RIPK2 inhibition assay (indirect ELISA); format: biochemical; conditions: His-RIPK2 0.6 nM, 6 μM ATP; read-out: RIPK2 IC50 range
Method: Active RIPK2 was purchased from Life Technologies as His-tagged of catalityc domain (amin acids 1-299) of human RIPK2 kinase expressed in insect cells. Amino terminal 6 histidine, sumo tagged human TTK (residues 1-275) was expressed in E. coli, and purified to >95% homogeneity by Ni^2+ agarose, gel filtration, and ion exchange chromatography.
RIPK2 activity was measured using an indirect ELISA detection system. His—RIPK2 (0.6 nM) was incubated in the presence of 6 μM ATP (Sigma cat # A7699), 20 mM Hepes, pH 7.5, 1 mM EGTA, 2.5 mM MgCl2, 2.5 mM MnCl2 and 0.01% Triton X-100 in a 96 well microtitre plate pre-coated with amino terminal 6 histidine, sumo tagged TTK (amino acid residues 1-275). The reaction was allowed to proceed for 30 minutes, followed by 5 washes of the plate with Wash Buffer (phosphate buffered saline supplemented with 0.2% Tween 20), and incubation for 30 minutes with a 1:3000 dilution of primary antibody (Cell Signaling cat #9381). The plate was washed 5 times with Wash Buffer, incubated for 30 minutes in the presence of secondary antibody coupled to horse radish peroxidase (BioRad cat #1721019, 1:3000 concentration), washed an additional 5 times with Wash Buffer, and incubated in the presence of TMB substrate (Sigma cat # T0440). The colorimetric reaction was allowed to continue for 5 minutes, followed by addition of stop solution (0.5 N H2SO4), and quantified by detection at 450 nm with either a monoChromatic or filter based plate reader (Molecular Devices M5 or Beckman DTX880, respectively).
Compound inhibition was determined at either a fixed concentration (10 μM) or at a variable inhibitor concentration (typically 50 μM to 0.1 μM in a 10 point dose response titration). Compounds were pre-incubated in the presence of enzyme for 15 minutes prior to addition of ATP and the activity remaining quantified using the above described activity assay. The % Inhibition of a compound was determined using the following formula; % Inhibition=100×(1−(experimental value−background value)/(high activity control−background value)). The IC50 value was determined using a non-linear 4 point logistic curve fit (XLfit4, IDBS) with the formula; (A+(B/(1+((x/C)^D)))), where A=background value, B=range, C=inflection point, D=curve fit parameter.

[2] = tested on: HCT116 colon cancer cells; experiment: Sulforhodamine B cell growth inhibition assay; format: cell-based; conditions: Homo sapiens, HCT-116, 120 h; 5 days, SRB; read-out: Colon GI50 range HCT116
Method: (§1) Breast cancer cells (MDA-MB-231 and MDA-MB-468), colon cancer cells (HCT116 and HT-29) and ovarian cancer cells (SKOV-3 and OVCAR-3) were seeded (1000 to 4000 in 80 μL per well depending on the cell growth rate) into 96 well plates 24 hours before compound overlay. Compounds were prepared as 10 mM stock solutions in 100% DMSO which were diluted with DMEM (Dulbecco's Modified Eagle's Medium) cell growth Medium (Invitrogen, Burlington, ON, Canada) containing 10% FBS (Fetal Bovine Serum) to concentrations ranging from 50 nM to 250 μM. Aliquots (20 μL) from each concentration were overlaid to 80 μL of the pre-seeded cells in the 96 well plates to make final concentrations of 10 nM to 50 μM. The cells were cultured for 5 days before the Sulforhodamine B assay (SRB) was performed to determine the compound's cell growth inhibition activity.
(§2) The cells are fixed in situ by gently aspirating off the culture media and adding 50 μL ice cold 10% trichloroacetic acid per well and incubate at 4° C. for 30-60 min. The plates are washed with H2O five times and allowed to air dry for 5 min. Addition of 50 μL 0.4% (w/v) SRB solution in 1% (v/v) acetic acid to each well and incubation for 30 min at rt completes the staining reaction. Following staining, plates are washed four times with 1% acetic acid to remove unbound dye and then allowed to air dry for 5 min. The stain is solubilized with 100 μL of 10 mM Tris pH 10.5 per well. Absorbance is read at 570 nm. The percentage (%) of relative growth inhibition was calculated by comparing to DMSO treated only cells (100%). GI50's were determined for compounds with cytotoxic activity. The GI50 was calculated using GraphPad PRISM software (GraphPad Software, Inc., San Diego, Calif., USA). GI50 (growth inhibition) is the compound concentration that causes 50% inhibition of cell growth.
(§3) In Table 2 lists GI50 value ranges for compound examples against breast cancer cell lines (MDA-MB-231, MDA-MB-468), colon cancer cell lines (HCT116, HT-29) and ovarian cancer cell lines (OVCAR-3, SKOV-3) are given. […] The GI50 ranges are indicated as “A,” “B,” and “C,” for values less than or equal to 1 μM; those greater than 1 μM and less than or equal to 10 μM; and those greater than 10 μM, respectively.

[3] = tested on: HT-29 colon cancer cells; experiment: Sulforhodamine B cell growth inhibition assay; format: cell-based; conditions: Homo sapiens, HT-29, 120 h; 5 days, SRB; read-out: Colon GI50 range HT29
Method: as §1, §2, §3

[4] = tested on: MDA-MB-231 breast cancer cells; experiment: Sulforhodamine B cell growth inhibition assay; format: cell-based; conditions: Homo sapiens, MDA-MB-231, 120 h; 5 days, SRB; read-out: Breast GI50 range MDA-MB-231
Method: as §1, §2, §3

[5] = tested on: MDA-MB-468 breast cancer cells; experiment: Sulforhodamine B cell growth inhibition assay; format: cell-based; conditions: Homo sapiens, MDA-MB-468, 120 h; 5 days, SRB; read-out: Breast GI50 range MDA-MB-468
Method: as §1, §2, §3

[6] = tested on: OVCAR-3 ovarian cancer cells; experiment: Sulforhodamine B cell growth inhibition assay; format: cell-based; conditions: Homo sapiens, OVCAR-3, 120 h; 5 days, SRB; read-out: Ovarian GI50 range OVCAR-3
Method: as §1, §2, §3

[7] = tested on: SKOV-3 ovarian cancer cells; experiment: Sulforhodamine B cell growth inhibition assay; format: cell-based; conditions: Homo sapiens, SK-OV-3, 120 h; 5 days, SRB; read-out: Ovarian GI50 range SKOV-3
Method: as §1, §2, §3

[8] = tested on: IL-12-yellow fluorescent protein (YFP) reporter mouse bone marrow dendritic cells; experiment: IL-12-YFP reporter dendritic cells, flow cytometric analysis; format: cell-based; conditions: stimulated 24 hours with LPS or Pam3Cys ± 1 μg/ml MDP
Method: FIGS. 2(A)-(C) are graphs illustrating the effects of compound A3 on cytokine production by dendritic cells.
(§4) IL-12-yellow fluorescent protein (YFP) reporter mouse bone marrow dendritic cells were stimulated for 24 hours with 0.3 ng/ml LPS±1 μg/ml MDP (i.e., NOD2 agonist) in the presence of Example A3 (FIG. 2A). IL-12-yellow fluorescent protein (YFP) reporter mouse bone marrow dendritic cells were stimulated for 24 hours with 0.3 μg/ml Pam3Cys±1 μg/ml MDP (i.e., NOD2 agonist) in the presence of Example A3 (FIG. 2B). […] Data are represented as the mean±SEM of triplicate measurements. Levels of IL-12 p70 (FIG. 2C, left panel) and TNFα (FIG. 2C, right panel) in the cell culture supernatants from A were measured by ELISA techniques with commercially available kits. […] Data are represented as the mean±SEM of triplicate measurements.

[9] = tested on: mouse bone marrow dendritic cells; experiment: Dendritic cell viability by 7AAD exclusion; format: cell-based; conditions: stimulated 24 hours with LPS or Pam3Cys ± 1 μg/ml MDP
Method: as §4

[10] = tested on: IL-12 p70; experiment: IL-12 p70 in dendritic cell culture supernatants by ELISA; format: cell-based, mouse; conditions: 0.3 ng/ml LPS ± 1 μg/ml MDP, 24 hours
Method: as §4

[11] = tested on: TNFα; experiment: TNFα in dendritic cell culture supernatants by ELISA; format: cell-based, mouse; conditions: 0.3 ng/ml LPS ± 1 μg/ml MDP, 24 hours
Method: as §4

Chain of human RIPK2 kinase (O43353 1-299): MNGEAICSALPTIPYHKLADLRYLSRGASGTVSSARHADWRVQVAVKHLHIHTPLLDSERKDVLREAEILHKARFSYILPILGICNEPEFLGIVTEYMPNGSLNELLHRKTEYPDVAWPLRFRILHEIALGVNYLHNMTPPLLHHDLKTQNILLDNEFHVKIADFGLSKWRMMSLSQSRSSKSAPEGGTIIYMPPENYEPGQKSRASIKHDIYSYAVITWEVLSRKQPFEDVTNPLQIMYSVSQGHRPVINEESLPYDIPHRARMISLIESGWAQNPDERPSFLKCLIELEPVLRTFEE

IC50 [1] | GI50 [2] | GI50 [3] | GI50 [4] | GI50 [5] | GI50 [6] | GI50 [7] | Compound | percentage of YFP positive cells (percentage of IL-12 positive cells) [8] | mean fluorescence intensity YFP (amount of IL-12) ([8]; MDP-dependent) | cell viability as assessed by 7AAD exclusion [9] | levels of IL-12 p70 in cell culture supernatants [10] | levels of TNFα in cell culture supernatants [11]
≤ 100 nM | ≤ 1000 nM | ≤ 1000 nM | ≤ 1000 nM | ≤ 1000 nM | ≤ 1000 nM | ≤ 1000 nM | Cc1ccccc1-c1cc2nc(Nc3cccc(N4CCOCC4)c3)ncc2[nH]1 [Example A3, N-(3-morpholinophenyl)-6-(o-tolyl)-5H-pyrrolo[3,2-d]pyrimidin-2-amine] | minimal effect | dose-dependent reduction | no measurable effect | dose-dependent reduction | dose-dependent reduction
≤ 100 nM | ≤ 1000 nM | ≤ 1000 nM | ≤ 1000 nM | ≤ 1000 nM | ≤ 1000 nM | 1000 to 10000 nM | Cc1ccccc1-c1cc2nc(Nc3cccc(N4CCN(C)CC4)c3)ncc2[nH]1 [Example A4, N-(3-(4-methylpiperazin-1-yl)phenyl)-6-(o-tolyl)-5H-pyrrolo[3,2-d]pyrimidin-2-amine] | – | – | – | – | –
≤ 100 nM | 1000 to 10000 nM | 1000 to 10000 nM | 1000 to 10000 nM | 1000 to 10000 nM | ≤ 1000 nM | ≤ 1000 nM | Cc1cccc(C)c1-c1cc2nc(Nc3cccc(N4CCOCC4)c3)ncc2[nH]1 [Example A12, 6-(2,6-dimethylphenyl)-N-(3-morpholinophenyl)-5H-pyrrolo[3,2-d]pyrimidin-2-amine] | – | – | – | – | –
100 to 500 nM | ≤ 1000 nM | ≤ 1000 nM | ≤ 1000 nM | ≤ 1000 nM | ≤ 1000 nM | ≤ 1000 nM | Fc1ccccc1-c1cc2nc(Nc3cccc(N4CCOCC4)c3)ncc2[nH]1 [Example A13, 6-(2-fluorophenyl)-N-(3-morpholino-phenyl)-5H-pyrrolo[3,2-d]pyrimidin-2-amine] | – | – | – | – | –

Source: US10239881B2, “RIPK2 inhibitors and method of treating cancer with same” (University Health Network, priority 2014, dated 2019)
